Results reported in patent US9821062B2, “Cyanine dye compound and preparation method therefor, and dual-function agent for photodynamic therapy and preparation method therefor” (ZHEJIANG HISUN PHARMACEUTICAL CO., LTD., priority 2012, dated 2017).

Test: Ultraviolet spectroscopy detection: long-wavelength absorption peak, fluorescence, Stokes shift
Format: physicochemical
Excerpt: Electronic absorption spectra for the compounds are shown in FIG. 1, from which it can be seen that, all the compounds having a structure shown in formula VIII, formula IX, formula III, formula IV, formula V, and formula XVII provided according to the present invention show a strong long-wavelength absorption peak between 750 nm and 860 nm, and have an obvious Stokes shift between 37 nm and 41 nm.

Fluorescence: 876 nm
Stokes shift: 39 nm
Absorption peak (long-wavelength absorption peak): 837 nm
Structure (SMILES): CC1(C)C(/C=C/C2=C(Sc3ccc(C(=O)O)cc3)C(=C/C=C3/N(CCCCS(=O)(=O)O)c4ccc5ccccc5c4C3(C)C)/CCC2)=[N+](CCCCS(=O)(=O)O)c2ccc3ccccc3c21 [Formula IX]
